Assay: Human HepG2 cell viability assay in 384 well format
Assay type: toxicity, cell-based
Parameters: dose 125 nL, time 70.5 hour; cytotoxicity at 70.5 h: concentration not given beside the values
Conditions: HepG2 cells, read-out: Inhibition

Row | Structure (SMILES) | cytotoxicity at 70.5 h
1 | NC(=O)NC(CC(=O)NCCc1cccc(F)c1)c1ccccc1 (configuration not stated) | -6.09%
2 | Cc1cc(CN2CCN(c3ccc4nncn4n3)C(C)C2)no1 (configuration not stated) | 5.04%
3 | CC(C#N)CSc1ccccc1NCC(=O)NC(=O)NC(C)(C)C (configuration not stated) | -2.56%
4 | O=C1CC(c2ccccc2)C2(CCN(Cc3ccncc3)CC2)N1 (configuration not stated) | -12.7%
5 | CC(OCC1CC1)C(=O)N1CCCN(Cc2nccn2C)CC1 (configuration not stated) | -11.2%
6 | CC(C)NC(=O)[C@H]1C[C@H]2NCCO[C@@H]2C1 | 3.88%
7 | Cc1nc(C2CCNCC2)cc(N(C)Cc2cc3cc(F)ccc3[nH]2)n1 | -1.29%
8 | Cc1cc(C)n(C2CCCN(C(=O)c3c[nH]c(=O)c(Cl)c3)C2)n1 (configuration not stated) | -8.77%
9 | CN1CCC(Cc2nc(-c3cnccn3)n(C3CCS(=O)(=O)C3)n2)CC1 (configuration not stated) | 0.375%
10 | Nc1nc(CN2CCCC2Cn2cncn2)nc2ccccc12 (configuration not stated) | -2.37%
11 | Cc1ccc(S(=O)(=O)N2CCC(Cn3cc(C(C)(C)N)nn3)CC2)s1 | -6.09%
12 | CC(=O)N1CC[C@@H]2O[C@H](C(=O)Nc3nc(C)cs3)C[C@@H]21 | -3.43%
13 | Cn1cc(CN2CCCC3(CCN(C(=O)c4ccoc4)C3)C2)cn1 (configuration not stated) | -11%
14 | CN(Cc1ccc2c(c1)OCO2)C(=O)NCCc1cnn(C)c1 | -3.13%
15 | CCOC1COC2(CCN(c3cccc(C)n3)CC2)C1 (configuration not stated) | -2.34%
16 | CN(Cc1csc(-c2cccs2)n1)C(=O)CN1CCOC1=O | -3.58%
17 | Cc1nc(CCCNC(=O)C2CC(=O)N(C3CCCC3)C2)sc1C (configuration not stated) | -9.24%
18 | O=C(Cc1ccon1)NC1CC2(CCC2)Oc2ccccc21 (configuration not stated) | 4.31%
19 | COCCC(=O)N1CC[C@@H](N2CCOCC2)[C@@H]1Cc1ccccc1 | -8.94%
20 | c1cc(N2CCOCC(Cc3ccc4[nH]ccc4c3)C2)ncn1 (configuration not stated) | -8.81%
21 | CC(C)(CO)Nc1c(NCc2ccccc2)c(=O)c1=O | 0.361%
22 | CCC(CN1CCCC1)NC(=O)Cc1c(C)[nH]c2c(C)cc(C)cc12 (configuration not stated) | 12.8%
23 | CNC(=O)[C@@H]1[C@@H](c2ccccc2)CN2CCN(Cc3ccco3)C[C@H]12 | 23.2%

Row | Structure (SMILES) | cytotoxicity at 70.5 h
24 | COCC1CC2(CCN(Cc3ccc(C)o3)CC2)CN1C(C)C (configuration not stated) | -3.1%
25 | CC(C)c1cc(C2CCN(C(=O)Cn3nc4ccccc4n3)CC2)[nH]n1 | -5.96%
26 | CCN(c1ccsc1C(=O)N1CCSCC1)S(=O)(=O)c1ccccc1 | 6.6%
27 | Cc1ccc(C(=O)NS(=O)(=O)c2ccccc2C)c(=O)[nH]1 | -4.91%
28 | O=C(NCCc1ccccc1)c1cccc(S(=O)(=O)NC2CCOC2)c1 (configuration not stated) | 19.4%
29 | CCc1ccccc1OC1CN(C(=O)CN(C)Cc2ccncc2)C1 | -8.04%
30 | CSc1ccccc1C(=O)C1CCCN(Cc2cc(C(C)C)[nH]n2)C1 (configuration not stated) | -6.68%
31 | Cc1noc(C)c1CN(C)Cn1c(=O)oc2ccccc21 | 39.4%
32 | O=C(NCC(Cc1cccc(F)c1)N1CCCC1=O)c1ccc[nH]c1=O (configuration not stated) | -16.4%
33 | O=C(CCC1CCCO1)N1CCc2nc(-c3cnccn3)nc(O)c2C1 (configuration not stated) | -3.93%
34 | NC(=O)C1CCN(c2ncc(-c3cnccn3)c([C@H]3CCCO3)n2)CC1 | -11.5%
35 | COc1coc(CN2CCCC(CCc3ccc(F)cc3)C2)cc1=O (configuration not stated) | 2.53%
36 | COc1cccc(S(=O)(=O)NC(=O)C2CC(c3ccccc3)=NO2)c1 (configuration not stated) | -9.7%
37 | Cc1cc(F)ccc1CCNC(=O)NCC(C)N1CCOCC1 (configuration not stated) | 3.68%
38 | CC(OCC1CC1)C(=O)N1CCCN(Cc2nccn2C(C)C)CC1 (configuration not stated) | -5.25%
39 | Cc1cnn(CCNC(C)C(=O)NCCc2cccs2)c1 (configuration not stated) | 23%
40 | CC1(C)CNC(=O)c2nc(-c3ccccc3)[nH]c2C1 | 14.6%
41 | CC(=O)NCC[C@H]1CC(C)(C)Oc2ccccc21 | -4.17%
42 | c1cncc(CCc2nc(C3CC3)nn2-c2ccc3c(c2)OCCO3)c1 | 21.8%
43 | COc1ccc(CCN2CC(n3nc(C)cc3C)C2)cc1 | -16.5%
44 | O=C(CC1CC1)NCc1cn2c(n1)CN(Cc1cccc(F)c1)CC2 | -3.4%
45 | CCC(C)N(Cc1ccsc1)C(=O)c1ccc(CO)cc1 (configuration not stated) | -0.23%
46 | CCc1noc(C(C)N2CCN(S(=O)(=O)N3CCCC3)CC2)n1 (configuration not stated) | -8.69%

Row | Structure (SMILES) | cytotoxicity at 70.5 h
47 | CS(=O)(=O)c1ccc(CN2C[C@H]3CC[C@@H]2CN(c2ncccn2)C3)cc1 | -5.94%
48 | CCc1nnc2n1CCN(Cc1csc(-c3cnn(C)c3)n1)C2 | 6.48%
49 | Cc1nc(CN2CCCC(N(C)c3cnc4ccccc4n3)C2)no1 (configuration not stated) | 20.5%
50 | Cc1ccc(CN(C)C(=O)CCNS(=O)(=O)c2cccnc2)cc1 | -7.21%
51 | CCCS(=O)(=O)N1CCC2(CC1)CN(c1ccccn1)CCO2 | 23.8%
52 | CSc1ccc(NS(=O)(=O)c2cnn(C)c2)cn1 | -1.76%
53 | CCS(=O)(=O)c1ccccc1N1CCC(NC(=O)C(C)C)CC1 | 5.03%
54 | CCCOc1ccc2c(c1)OCC(C(=O)NC(C)Cn1ccnc1)=C2 (configuration not stated) | -6.31%
55 | O=C(NCCc1noc(C2CCCC2)n1)c1cn2ccsc2n1 | -6.72%
56 | CC1=Nc2c(c(=O)[nH]n2C(C)C)C(c2ccccc2)S1 (configuration not stated) | -3.86%
57 | CN(C)CCN1CCN(C)c2nc(-c3ccccc3)ncc2C1=O | -9.02%
58 | CC(C)(C)CC(=O)N[C@@H]1CO[C@H](CNC(=O)c2ccncc2)[C@H]1O | -2.51%
59 | Cc1occc1C(=O)N1CCC2(CCN(Cc3ccccn3)C2=O)C1 (configuration not stated) | 5.42%
60 | O=S(=O)(N1CCCCCC1)N1CCCN(CC2CCCO2)CC1 (configuration not stated) | -1.63%
61 | COc1c(C)cnc(CN(C)C(=O)c2cccnc2N(C)C)c1C | -0.657%
62 | CCOc1ncccc1NC(=O)N1CCN(c2cccc(C)c2C)CC1 | 21.9%
63 | Cc1csc(C(=O)N2CCC(S(C)(=O)=O)CC2)c1 | -5.62%
64 | Cc1cccnc1NCCNC(=O)C1CCN(C(=O)N(C)C)CC1 | 12.2%
65 | CCc1cc(NCCCNS(C)(=O)=O)nc(-c2ccncc2)n1 | -9.08%
66 | Cc1cc(C(N)=O)ccc1NC(=O)c1nc(N2CCCCC2)ncc1Cl | 3.51%
67 | COc1cccc(N2CCN(Cc3nccn3C(C)C)CC2=O)c1 | -2.87%
68 | O=C(c1nnn(-c2ccc(C(F)(F)F)cc2)n1)N1CC(O)C1 | -8.07%
69 | c1cncc(CN2CCCC3(COCCN(c4nccs4)C3)C2)c1 (configuration not stated) | -5.78%

Row | Structure (SMILES) | cytotoxicity at 70.5 h
70 | Cc1ccc(F)c2c1CCCN2C(=O)c1cn(CC(=O)N(C)C)nn1 | -7.17%
71 | CCN(c1ccsc1C(=O)N1CCC(C)CC1)S(=O)(=O)c1ccccc1 | -11.9%
72 | Cc1cc(C)nc(N2CCC(C(=O)Nc3n[nH]c(C)n3)CC2)n1 | -7.75%
73 | CN(CC(=O)N1CCCC1c1noc(C2CC2)n1)C1CC1 (configuration not stated) | -8.76%
74 | COc1c(C)cnc(CNC(=O)c2cc(C)nc3onc(C)c23)c1C | -5.39%
75 | Cc1cnn(CC2CCCN2CC(=O)N(C)Cc2ccsc2)c1 (configuration not stated) | -2.74%
76 | CC(C)(O)CN1CCC(=O)N(Cc2ccco2)Cc2cc(F)ccc21 | 3.68%
77 | CC(C)c1nc(C2CCCN(C(=O)c3cccc4c3OCO4)C2)no1 (configuration not stated) | -1.62%
78 | Cc1nc(-c2ccc(S(=O)(=O)N3CCSC3)cc2)co1 | -10.2%
79 | CC(=O)N(C)Cc1ccccc1NCc1c(C)cccc1C | -3.43%
80 | COCC(=O)N1CC[C@@H](N2CCOCC2)[C@@H]1Cc1ccccc1 | 4.62%
81 | O=C(Nc1ccc(F)c(Br)c1)N1CCCC1 | -1.36%
82 | CC(C)NC(=O)CN(C)C1CCN(c2ccc(Cl)cn2)CC1 | -7%
83 | CCn1nc(C)cc1C(=O)N1CCCN(CCCc2ccccc2)CC1 | 1.03%
84 | COCCCC1(CO)CCCN(CCc2ccccn2)C1 (configuration not stated) | 0.702%
85 | Cc1noc(C)c1CN1CCN(CCN(C)C)c2ncccc2C1 | -2.96%
86 | O=C(CSc1ccc(F)cc1)NS(=O)(=O)c1ccc2c(c1)OCCO2 | 6.32%
87 | CCN(CC(=O)NCCc1nc(C)no1)Cc1ccc(Cl)cc1 | -2.02%
88 | CC(NC(=O)NCc1cccnc1N(C)C)c1ccc(F)cc1 (configuration not stated) | -23.2%
89 | Cc1noc(C)c1CN1CC[C@H]2[C@@H]1CCC(=O)N2CC1CCOCC1 | -3.53%
90 | CC1CN(CC(=O)NC(C2CC2)C2CC2)CCN1Cc1nccn1C (configuration not stated) | -3.28%
91 | N#Cc1cccnc1NCCNC(=O)N1CCSCC1 | 9.49%
92 | CCN1CCN(c2ccc(C(=O)NC(C)C(=O)N(C)C)cc2)CC1 (configuration not stated) | -4.6%

Row | Structure (SMILES) | cytotoxicity at 70.5 h
93 | COc1ccccc1CC(C)CC(=O)O (configuration not stated) | -11.2%
94 | c1ncn(CC2CCCCN2Cc2csc(C3CCCC3)n2)n1 (configuration not stated) | 33.9%
95 | CCC(C(=O)NC1CCCCC1)n1ccc2ncccc2c1=O (configuration not stated) | -11.8%
96 | CSc1ncn(-c2nc(NC3CC3)nc(N(C)C)n2)n1 | -25.9%
97 | Clc1cc(NCc2ncc[nH]2)nc2[nH]ccc12 | -6.45%
98 | Cc1nc(C2CCCN(C(=O)c3cnn(C4CCCCC4)c3)C2)no1 (configuration not stated) | -1.22%
99 | CC(C(N)=O)N(C)CCCc1cc(-c2ccccc2)no1 (configuration not stated) | -2.88%
100 | O=C1N(c2ccsc2)CCC12CCCN(c1ncc(F)cn1)C2 (configuration not stated) | -9.83%
101 | Cc1cccc(-n2ncc3c2CCCC3NCc2cccc(O)c2)c1C (configuration not stated) | -3.55%
102 | Cc1ccc(-c2cn[nH]c2C2CCCN(c3cc(N)ncn3)C2)cc1 (configuration not stated) | 5.4%
103 | COCC(=O)N1CCC2(CC1)CN(c1cncnc1)C(=O)CO2 | -12%
104 | Cc1ccc(CC(=O)N2CCc3nnc(N(C)C)cc3C2)s1 | -4.06%
105 | Cc1cccc(C(=O)NC(C(=O)NCc2ccc(O)nc2)C(C)C)c1 (configuration not stated) | -10.8%
106 | CC(C)Cn1cc(NC(=O)NC(C)(C)c2nccs2)cn1 | -6.56%
107 | COc1ccc(-c2cc(C(=O)NCCCn3ccnc3C)n(C)n2)cc1 | -4.65%
108 | Cc1ncccc1C(=O)NC1(c2cccc(F)c2)CCOCC1 | -3.77%
109 | CC(C1CCN(Cc2cccc(OC(F)F)c2)CC1)N1CCOCC1 (configuration not stated) | -9.64%
110 | CCCN1CCN(Cc2cccc(OC(C)C)c2)[C@H]2CS(=O)(=O)C[C@H]21 | 12.5%
111 | CN(C)C(=O)c1nc(CN2CC(Cc3ccccc3)CC2=O)no1 (configuration not stated) | -2.6%
112 | CCNC(=O)c1cn2cc(-c3ccccc3Cl)n(CC3CC3)c(=O)c2n1 | 16.2%
